Laboratory results published in ChEMBL document CHEMBL2073979, “Molecular cloning and characterization of a new multispecific organic anion transporter from rat brain” (J Biol Chem, 1999).

Assays:
[1] = molecular target: T1, Organic anion transporter 3 (Rattus norvegicus, UniProt Q9R1U7); experiment: TP_TRANSPORTER: inhibition of E1S uptake (E1S: 40 uM, DIDS: 1000 uM) in Xenopus laevis oocytes; assay type: functional, cell-based; conditions: oocyte
T1 sequence (Q9R1U7 whole entry): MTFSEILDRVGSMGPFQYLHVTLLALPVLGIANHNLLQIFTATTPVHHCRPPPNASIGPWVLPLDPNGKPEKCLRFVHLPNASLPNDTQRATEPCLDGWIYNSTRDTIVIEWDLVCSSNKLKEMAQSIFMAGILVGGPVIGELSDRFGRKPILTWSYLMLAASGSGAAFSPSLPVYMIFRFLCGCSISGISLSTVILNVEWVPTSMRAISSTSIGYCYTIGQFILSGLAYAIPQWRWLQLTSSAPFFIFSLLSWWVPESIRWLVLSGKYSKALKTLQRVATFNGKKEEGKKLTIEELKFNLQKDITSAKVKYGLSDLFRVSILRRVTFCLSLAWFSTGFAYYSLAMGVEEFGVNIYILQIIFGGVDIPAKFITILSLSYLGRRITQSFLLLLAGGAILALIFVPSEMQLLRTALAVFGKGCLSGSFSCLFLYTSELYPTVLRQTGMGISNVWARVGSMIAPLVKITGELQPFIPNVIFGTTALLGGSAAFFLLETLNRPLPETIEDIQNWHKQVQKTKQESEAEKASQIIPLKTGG

[2] = molecular target: T1, Organic anion transporter 3; experiment: TP_TRANSPORTER: inhibition of E1S uptake (E1S: 40 uM, BSP: 1000 uM) in Xenopus laevis oocytes; assay type: functional, cell-based; conditions: oocyte
[3] = molecular target: T1, Organic anion transporter 3; experiment: TP_TRANSPORTER: inhibition of E1S uptake (E1S: 40 uM, MTX: 1000 uM) in Xenopus laevis oocytes; assay type: functional, cell-based; conditions: oocyte
[4] = molecular target: T1, Organic anion transporter 3; experiment: TP_TRANSPORTER: inhibition of E1S uptake (E1S: 40 uM, Bumetanide: 1000 uM) in Xenopus laevis oocytes; assay type: functional, cell-based; conditions: oocyte
[5] = molecular target: T1, Organic anion transporter 3; experiment: TP_TRANSPORTER: inhibition of E1S uptake (E1S: 40 uM, Ouabain: 1000 uM) in Xenopus laevis oocytes; assay type: functional, cell-based; conditions: oocyte
[6] = molecular target: T1, Organic anion transporter 3; experiment: TP_TRANSPORTER: inhibition of E1S uptake (E1S: 40 uM, Piroxicam: 1000 uM) in Xenopus laevis oocytes; assay type: functional, cell-based; conditions: oocyte
[7] = molecular target: T1, Organic anion transporter 3; experiment: TP_TRANSPORTER: inhibition of E1S uptake (E1S: 40 uM, Malatonin: 1000 uM) in Xenopus laevis oocytes; assay type: functional, cell-based; conditions: oocyte
[8] = molecular target: T1, Organic anion transporter 3; experiment: (§1) TP_TRANSPORTER: uptake in Xenopus laevis oocytes; assay type: functional, cell-based, Oocyte; conditions: oocyte
[9] = molecular target: T1, Organic anion transporter 3; experiment: TP_TRANSPORTER: inhibition of E1S uptake (E1S: 40 uM, Cefoperazone: 1000 uM) in Xenopus laevis oocytes; assay type: functional, cell-based; conditions: oocyte
[10] = molecular target: T2, Organic anion transporter 3 (OAT3) (Rattus norvegicus, UniProt Q9R1U7); experiment: as §1; assay type: functional, cell-based, Oocyte
T2 sequence (Q9R1U7 whole entry): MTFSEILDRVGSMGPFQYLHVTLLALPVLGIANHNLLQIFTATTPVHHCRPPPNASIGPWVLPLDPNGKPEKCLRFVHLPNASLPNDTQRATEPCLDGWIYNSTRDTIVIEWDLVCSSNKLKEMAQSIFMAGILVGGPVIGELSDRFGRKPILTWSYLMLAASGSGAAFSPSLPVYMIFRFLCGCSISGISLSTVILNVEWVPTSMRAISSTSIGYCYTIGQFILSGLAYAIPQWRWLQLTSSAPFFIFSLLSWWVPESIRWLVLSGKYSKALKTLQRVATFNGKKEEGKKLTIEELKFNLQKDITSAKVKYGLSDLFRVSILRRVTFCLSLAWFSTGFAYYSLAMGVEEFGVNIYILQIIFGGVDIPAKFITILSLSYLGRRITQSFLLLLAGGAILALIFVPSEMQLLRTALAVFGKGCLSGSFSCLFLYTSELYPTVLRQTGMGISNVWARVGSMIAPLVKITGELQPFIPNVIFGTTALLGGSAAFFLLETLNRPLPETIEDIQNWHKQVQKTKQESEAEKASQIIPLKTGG

[11] = molecular target: T1, Organic anion transporter 3; experiment: TP_TRANSPORTER: inhibition of E1S uptake (E1S: 40 uM, Probenecid: 1000 uM) in Xenopus laevis oocytes; assay type: functional, cell-based; conditions: oocyte
[12] = molecular target: T1, Organic anion transporter 3; experiment: TP_TRANSPORTER: inhibition of E1S uptake (E1S: 40 uM, Indomethacin: 1000 uM) in Xenopus laevis oocytes; assay type: functional, cell-based; conditions: oocyte
[13] = molecular target: T1, Organic anion transporter 3; experiment: TP_TRANSPORTER: inhibition of E1S uptake (E1S: 40 uM, AZT: 1000 uM) in Xenopus laevis oocytes; assay type: functional, cell-based; conditions: oocyte
[14] = molecular target: T1, Organic anion transporter 3; experiment: TP_TRANSPORTER: inhibition of E1S uptake (E1S: 40 uM, Furosemide: 1000 uM) in Xenopus laevis oocytes; assay type: functional, cell-based; conditions: oocyte
[15] = molecular target: T1, Organic anion transporter 3; experiment: TP_TRANSPORTER: inhibition of E1S uptake (E1S: 40 uM, ICG: 1000 uM) in Xenopus laevis oocytes; assay type: functional, cell-based; conditions: oocyte
[16] = substrate: C[C@]12CC[C@@H]3c4ccc(OS(=O)(=O)O)cc4CC[C@H]3[C@@H]1CCC2=O; experiment: as §1; assay type: functional, cell-based, Oocyte
[17] = substrate: Nc1ccc(C(=O)NCC(=O)O)cc1; experiment: as §1; assay type: functional, cell-based, Oocyte

Q: O=S(=O)(O)c1cc(N=C=S)ccc1/C=C/c1ccc(NC=S)cc1S(=O)(=O)O was tested. Which Activity [1] did it give?
A: inhibitor [(at a rough estimate) 10 % of control]

Q: For O=C1OC(c2ccc(O)c(S(=O)(=O)[O-])c2)(c2ccc(O)c(S(=O)(=O)[O-])c2)c2c(Br)c(Br)c(Br)c(Br)c21.[Na+].[Na+] [SULFOBROMOPHTHALEIN SODIUM], which Activity [2] is on record?
A: inhibitor [(at a rough estimate) 5 % of control]

Q: CN(Cc1cnc2nc(N)nc(N)c2n1)c1ccc(C(=O)N[C@@H](CCC(=O)O)C(=O)O)cc1 [METHOTREXATE] was tested. Which Activity [3] did it give?
A: inhibitor [(at a rough estimate) 35 % of control]

Q: CCCCNc1cc(C(=O)O)cc(S(N)(=O)=O)c1Oc1ccccc1 [BUMETANIDE] was tested. Which Activity [4] did it give?
A: inhibitor [(at a rough estimate) 20 % of control]

Q: With C[C@@H]1O[C@@H](O[C@H]2C[C@@H](O)[C@]3(CO)[C@H]4[C@H](O)C[C@]5(C)[C@@H](C6=CC(=O)OC6)CC[C@]5(O)[C@@H]4CC[C@]3(O)C2)[C@H](O)[C@H](O)[C@H]1O [OUABAIN] as the molecule, how does the Activity [5] read?
A: is not an inhibitor [-]

Q: For CN1C(C(=O)Nc2ccccn2)=C(O)c2ccccc2S1(=O)=O [PIROXICAM], which Activity [6] is on record?
A: inhibitor [(at a rough estimate) 10 % of control]

Q: For COc1ccc2[nH]cc(CCNC(C)=O)c2c1 [MELATONIN], which Activity [7] is on record?
A: inhibitor [(at a rough estimate) 10 % of control]

Q: With CN/C(=N/CCSCc1nc[nH]c1C)NC#N [CIMETIDINE] as the molecule, how does the Activity [8] read?
A: substrate [+]

Q: Which Activity [9] does the source give for CCN1CCN(C(=O)N[C@@H](C(=O)N[C@@H]2C(=O)N3C(C(=O)O)=C(CSc4nnnn4C)CS[C@H]23)c2ccc(O)cc2)C(=O)C1=O [CEFOPERAZONE] here?
A: inhibitor [(at a rough estimate) 40 % of control]

Q: With C[C@@H]1Cc2c(Cl)cc(C(=O)N[C@@H](Cc3ccccc3)C(=O)O)c(O)c2C(=O)O1 [3R14S-OCHRATOXIN A] as the molecule, how does the Km [10] read?
A: 0.739 µM

Q: How did the Activity [11] turn out when CCCN(CCC)S(=O)(=O)c1ccc(C(=O)O)cc1 [PROBENECID] was run?
A: inhibitor [(at a rough estimate) 15 % of control]

Q: How did the Activity [12] turn out when COc1ccc2c(c1)c(CC(=O)O)c(C)n2C(=O)c1ccc(Cl)cc1 [INDOMETHACIN] was run?
A: is not an inhibitor [-]

Q: How did the Activity [13] turn out when Cc1cn([C@H]2C[C@H](N=[N+]=[N-])[C@@H](CO)O2)c(=O)[nH]c1=O [ZIDOVUDINE] was run?
A: inhibitor [(at a rough estimate) 20 % of control]

Q: How did the Activity [14] turn out when NS(=O)(=O)c1cc(C(=O)O)c(NCc2ccco2)cc1Cl [FUROSEMIDE] was run?
A: inhibitor [(at a rough estimate) 10 % of control]

Q: With CC1(C)C(/C=C/C=C/C=C/C=C2/N(CCCCS(=O)(=O)[O-])c3ccc4ccccc4c3C2(C)C)=[N+](CCCCS(=O)(=O)[O-])c2ccc3ccccc3c21.[Na+] [INDOCYANINE GREEN] as the molecule, how does the Activity [15] read?
A: inhibitor [(at a rough estimate) 20 % of control]

B1: Organic anion transporter 3 (Rattus norvegicus) (protein)
chain: MTFSEILDRVGSMGPFQYLHVTLLALPVLGIANHNLLQIFTATTPVHHCRPPPNASIGPWVLPLDPNGKPEKCLRFVHLPNASLPNDTQRATEPCLDGWIYNSTRDTIVIEWDLVCSSNKLKEMAQSIFMAGILVGGPVIGELSDRFGRKPILTWSYLMLAASGSGAAFSPSLPVYMIFRFLCGCSISGISLSTVILNVEWVPTSMRAISSTSIGYCYTIGQFILSGLAYAIPQWRWLQLTSSAPFFIFSLLSWWVPESIRWLVLSGKYSKALKTLQRVATFNGKKEEGKKLTIEELKFNLQKDITSAKVKYGLSDLFRVSILRRVTFCLSLAWFSTGFAYYSLAMGVEEFGVNIYILQIIFGGVDIPAKFITILSLSYLGRRITQSFLLLLAGGAILALIFVPSEMQLLRTALAVFGKGCLSGSFSCLFLYTSELYPTVLRQTGMGISNVWARVGSMIAPLVKITGELQPFIPNVIFGTTALLGGSAAFFLLETLNRPLPETIEDIQNWHKQVQKTKQESEAEKASQIIPLKTGG
Q: What does the source list for B1?
A: Km [16]: 2.34 µM; Km [17]: 64.7 µM
